Experimental data reported in patent publication US20250304551A1 (SHANGHAI APEIRON THERAPEUTICS COMPANY LIMITED, priority 2022, published 2025).

What was measured:
[1] = target: T1, Human KIF18A (amino acid sequence 1-417) (Homo sapiens, UniProt Q8NI77); assay: Enzyme activity detection experiment (ADP-Glo, KIF18A with tubulin and ATP); type: biochemical; details: tubulin 60 μg/mL, ATP 25 μM, KIF18A protein 2.5 nM, 120 minutes at ambient temperature, ADP-Glo chemiluminescence
T1 construct: purchased Viva Biotech (Shanghai) Ltd
T1 sequence (Q8NI77 1-417): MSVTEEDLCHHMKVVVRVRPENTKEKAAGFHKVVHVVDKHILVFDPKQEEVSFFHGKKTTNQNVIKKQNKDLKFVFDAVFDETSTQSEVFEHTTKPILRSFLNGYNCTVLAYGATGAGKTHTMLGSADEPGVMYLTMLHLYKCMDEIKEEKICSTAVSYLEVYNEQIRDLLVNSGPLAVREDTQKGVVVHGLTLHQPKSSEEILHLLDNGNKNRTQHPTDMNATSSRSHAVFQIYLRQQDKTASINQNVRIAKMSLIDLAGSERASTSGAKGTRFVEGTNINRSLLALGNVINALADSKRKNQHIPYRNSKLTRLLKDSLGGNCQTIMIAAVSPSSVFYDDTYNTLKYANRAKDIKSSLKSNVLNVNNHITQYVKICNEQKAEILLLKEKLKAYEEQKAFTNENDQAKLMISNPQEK
T1 sequence (Q2XVP4 whole entry partner): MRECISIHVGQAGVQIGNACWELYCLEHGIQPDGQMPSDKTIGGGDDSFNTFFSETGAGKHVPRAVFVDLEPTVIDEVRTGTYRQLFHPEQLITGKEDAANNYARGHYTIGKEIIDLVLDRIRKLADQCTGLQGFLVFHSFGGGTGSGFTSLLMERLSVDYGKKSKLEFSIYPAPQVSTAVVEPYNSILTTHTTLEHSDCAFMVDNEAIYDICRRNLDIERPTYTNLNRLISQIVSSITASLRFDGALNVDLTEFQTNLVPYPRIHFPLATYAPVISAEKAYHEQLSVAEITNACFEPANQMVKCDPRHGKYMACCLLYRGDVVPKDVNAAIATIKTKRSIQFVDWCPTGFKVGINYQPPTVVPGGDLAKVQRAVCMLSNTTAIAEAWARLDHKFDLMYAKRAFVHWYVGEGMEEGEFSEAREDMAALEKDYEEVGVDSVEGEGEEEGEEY
T1 sequence (P02554 whole entry partner): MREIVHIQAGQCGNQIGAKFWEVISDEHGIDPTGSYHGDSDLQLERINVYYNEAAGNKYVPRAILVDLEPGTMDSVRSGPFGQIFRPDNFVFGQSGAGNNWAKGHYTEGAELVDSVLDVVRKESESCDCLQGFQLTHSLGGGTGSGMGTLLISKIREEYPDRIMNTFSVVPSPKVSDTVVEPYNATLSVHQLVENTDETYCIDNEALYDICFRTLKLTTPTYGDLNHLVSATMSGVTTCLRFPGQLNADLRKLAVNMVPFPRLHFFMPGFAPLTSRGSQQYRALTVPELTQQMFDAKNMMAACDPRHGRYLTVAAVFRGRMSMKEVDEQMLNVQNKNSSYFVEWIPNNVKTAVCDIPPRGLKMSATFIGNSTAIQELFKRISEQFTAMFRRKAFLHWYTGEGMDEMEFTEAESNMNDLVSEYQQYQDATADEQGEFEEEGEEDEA
Procedure, shortened: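 KIF18A (2.5 nM) was incubated with tubulin (60 μg/mL as added), ATP (25 μM) and serially diluted compound for 120 min at ambient temperature. ADP formed was detected by ADP-Glo: reagent for 30 min, then detection reagent for 30 min in the dark, with chemiluminescence read-out.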

HT29 cells = assay: CyQuant cell proliferation activity test, HT29; type: cell-based; details: Homo sapiens, HT-29, 72 h, HT29 2000 cells per well, 3 days incubation, initial concentration 3000 nM, IC50 by XLFIT, read-out: HT-29 Cell Viability_IC50_nM
Procedure, shortened: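 HT29 cells (2000/well, RPMI-1640 with 10% FBS) were plated overnight, then exposed to compound for 3 days at 37 °C, 5% CO2. Dosing was 9 concentrations, 3-fold dilutions from 3000 nM, in 0.20% DMSO. Proliferation was read with CyQuant reagent after 1 h, and IC50 derived from the curves.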

OVCAR3 cells = assay: Cell proliferation activity test, OVCAR3 (CyQUANT Direct); type: cell-based; details: Homo sapiens, OVCAR-3, 72 h, 3 days incubation, CyQUANT fluorescence detection, read-out: OVCAR-3 Cell Viability_IC50_nM
Procedure, shortened: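 OVCAR3 cells seeded overnight, then exposed to compounds at 0-10 μM final (0.20% DMSO) for 3 days at 37° C. Cell number read by CyQUANT Direct fluorescence after 60 min at 37° C.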

SMILES	IC50 [1] [nM]	IC50 (HT29 cells) [nM]	IC50 (OVCAR3 cells) [nM]
Nc1nc2c(N3CCC(F)(F)CC3)c(F)c(-c3cn(-c4ccc(NS(=O)(=O)CCO)cc4N4CCC5(CC4)CC5)nn3)cc2s1 [Example 81, N-(4-{4-[2-amino-4-(4,4-difluoropiperidin-1-yl)-5-fluoro-1,3-benzothiazol-6-yl]-1H-1,2,3-triazol-1-yl}-3-{6-azaspiro[2.5]octan-6-yl}phenyl)-2-hydroxyethane-1-sulfonamide]	710	30	20
O=S(=O)(CCO)Nc1ccc(-n2cc(-c3ccc(-c4cccnc4)c(N4CCC(F)(F)CC4)n3)nn2)c(N2CCC3(CC2)CC3)c1 [Example 82, N-(3-{6-azaspiro[2.5]octan-6-yl}-4-{4-[2-(4,4-difluoropiperidin-1-yl)-[3,3′-bipyridyl]-6-yl]-1H-1,2,3-triazol-1-yl}phenyl)-2-hydroxyethane-1-sulfonamide]	283	23	15
Cc1cc(-c2cn(-c3ccc(NS(=O)(=O)[C@@H](C)CO)cc3N3CCC4(CC3)CC4)nn2)nc(N2CCC(F)(F)CC2)n1 [Example 84, (2S)—N-(3-{6-azaspiro[2.5]octan-6-yl}-4-{4-[2-(4,4-difluoropiperidin-1-yl)-6-methylpyrimidin-4-yl]-1H-1,2,3-triazol-1-yl}phenyl)-1-hydroxypropane-2-sulfonamide]	125	25	21
Cc1cc(-c2cn(-c3ccc(NS(=O)(=O)C4(CO)CC4)cc3N3CCC4(CC3)CC4)nn2)nc(N2CCC(F)(F)CC2)n1 [Example 85, N-(3-{6-azaspiro[2.5]octan-6-yl}-4-{4-[2-(4,4-difluoropiperidin-1-yl)-6-methylpyrimidin-4-yl]-1H-1,2,3-triazol-1-yl}phenyl)-1-(hydroxymethyl)cyclopropane-1-sulfonamide]	188	34	25
Cc1cc(-c2cn(-c3ccc(NS(=O)(=O)C(C)(C)CO)cc3N3CCC4(CC3)CC4)nn2)nc(N2CCC(F)(F)CC2)n1 [Example 86, N-(3-{6-azaspiro[2.5]octan-6-yl}-4-{4-[2-(4,4-difluoropiperidin-1-yl)-6-methylpyrimidin-4-yl]-1H-1,2,3-triazol-1-yl}phenyl)-1-hydroxy-2-methylpropane-2-sulfonamide]	162	21	22

Compounds with a lower IC50 [1], results first:

IC50 [1] [nM]	IC50 (HT29 cells) [nM]	IC50 (OVCAR3 cells) [nM]	SMILES
117	16	13	Cc1cc(-c2cn(-c3ccc(NS(=O)(=O)[C@H](C)CO)cc3N3CCC4(CC3)CC4)nn2)nc(N2CCC(F)(F)CC2)n1 [Example 83, (2R)—N-(3-{6-azaspiro[2.5]octan-6-yl}-4-{4-[2-(4,4-difluoropiperidin-1-yl)-6-methylpyrimidin-4-yl]-1H-1,2,3-triazol-1-yl}phenyl)-1-hydroxypropane-2-sulfonamide]
118	52	29	Cc1cc(-c2cn(-c3ccc(NS(=O)(=O)CCO)cc3N3CCC(=C(F)F)CC3)nn2)nc(N2CCC(F)(F)CC2)n1 [Example 88, N-{3-[4-(difluoromethylidene)piperidin-1-yl]-4-{4-[2-(4,4-difluoropiperidin-1-yl)-6-methylpyrimidin-4-yl]-1H-1,2,3-triazol-1-yl}phenyl}-2-hydroxyethane-1-sulfonamide]
61	40	36	Cc1cc(-n2cc(-c3ccc(NS(=O)(=O)CCO)cc3N3CCC4(CC3)CC4)nn2)nc(N2CCC(F)(F)CC2)n1 [Example 89, N-(4-(1-(2-(4,4-difluoropiperidin-1-yl)-6-methylpyrimidin-4-yl)-1H-1,2,3-triazol-4-yl)-3-(6-azaspiro[2.5]octan-6-yl)phenyl)-2-hydroxyethanesulfonamide]
16	62	44	COc1cc(-n2cc(-c3ccc(NS(=O)(=O)CCO)cc3N3CCC4(CC3)CC4)nn2)nc(N2CCC(F)(F)CC2)n1 [Example 90, N-(3-{6-azaspiro[2.5]octan-6-yl}-4-{1-[2-(4,4-difluoropiperidin-1-yl)-6-methoxypyrimidin-4-yl]-1H-1,2,3-triazol-4-yl}phenyl)-2-hydroxyethane-1-sulfonamide]
